Measured values: ChEMBL document CHEMBL1795287, “Efficient synthesis of 3-O-thia-cPA and preliminary analysis of its biological activity toward autotaxin” (Bioorg Med Chem Lett, 2011)

How the values were obtained:
Autotaxin (Homo sapiens) [1] = target: Autotaxin (Homo sapiens) (UniProt Q13822); assay: Inhibition of human ATX catalytic activity in MDA-MB-231 cells using conditioned medium at 10 uM; format: cell-based
Autotaxin (Homo sapiens) [2] = target: Autotaxin (Homo sapiens) (UniProt Q13822); assay: Inhibition of human ATX catalytic activity in MDA-MB-231 cells using conditioned medium; format: cell-based

Structure (SMILES) | inhibition (Autotaxin (Homo sapiens) [1]) [%] | inhibition (Autotaxin (Homo sapiens) [2])
CCCCCC/C=C\CCCCCCCC(=O)OCC1COP(=O)(O)C1 (stereo not given) | 66 | –
CCCCCCCC/C=C\CCCCCCCC(=O)OCC1COP(=O)(O)O1 (stereo not given) | 25 | –
CCCCCC/C=C\CCCCCCCC(=O)OCC1CSP(=O)(O)O1 (racemic) | 55 | Dose-dependent effect
CCCCCCCC/C=C\CCCCCCCC(=O)OCC1CSP(=O)(O)O1 (racemic) | 55 | Dose-dependent effect
CCCCCCCCCCCCCCCC(=O)OCC1CSP(=O)(O)O1 (racemic) | 55 | Dose-dependent effect
CCCCCCCCCCCCCCCCCC(=O)OCC1CSP(=O)(O)O1 (racemic) | 55 | Dose-dependent effect
